Measured values reported in ChEMBL document CHEMBL3860077, “Synthesis and pharmacological evaluation of conformationally constrained glutamic acid higher homologues” (Bioorg Med Chem, 2016).

How the values were obtained:
[1] = Displacement of [3H]-AMPA from AMPA receptor in rat cortical membranes by scintillation counting method; assay type: cell membranes
[2] = Displacement of [3H]-KAIN from kainic acid receptor in rat cortical membranes by scintillation counting method; assay type: cell membranes
[3] = Displacement of [3H]-AMPA from AMPA receptor in Sprague-Dawley rat brain synaptic membranes after 30 mins by scintillation counting method
[4] = Displacement of [3H]-KAIN from kainic acid receptor in Sprague-Dawley rat brain synaptic membranes after 60 mins by scintillation counting method
[5] = target: Glutamate NMDA receptor; test: Displacement of [3H]-CGP39653 from NMDA receptor in Sprague-Dawley rat brain synaptic membranes after 60 mins by scintillation counting method

Compound | IC50 [1] | IC50 [2] | IC50 [3] | IC50 [4] | Ki [5] | pKi [5]
N[C@@H](C[C@@H]1CC(c2ccc(C(=O)O)cc2)=NO1)C(=O)O (racemic) |  |  | > 100 µM | > 100 µM | > 100 µM | 
N[C@@H](C[C@@H]1CC(c2ccccc2C(=O)O)=NO1)C(=O)O (racemic) |  |  | > 100 µM | > 100 µM | 3.6 µM | 
N[C@@H](C[C@H]1CC(c2ccc(C(=O)O)cc2)=NO1)C(=O)O (racemic) |  |  | > 100 µM | > 100 µM | > 100 µM | 
N[C@@H](C[C@H]1CC(c2ccccc2C(=O)O)=NO1)C(=O)O (racemic) |  |  | > 100 µM | > 100 µM | 22 µM | 4.69
N[C@@H](C[C@H]1CC(c2cccc(C(=O)O)c2)=NO1)C(=O)O (racemic) |  |  | > 100 µM | > 100 µM | 100 µM | 

Other lines, results leading:

IC50 [1] | IC50 [2] | IC50 [3] | IC50 [4] | Ki [5] | pKi [5] | Compound
> 100 µM | > 100 µM |  |  |  |  | N[C@@H](C[C@H]1CC(C(=O)O)=NO1)C(=O)O (racemic)
> 100 µM | > 100 µM |  |  |  |  | N[C@@H](C[C@@H]1CC(C(=O)O)=NO1)C(=O)O (racemic)
 |  | > 100 µM | > 100 µM | > 100 µM |  | N[C@@H](C[C@@H]1CC(/C=C/C(=O)O)=NO1)C(=O)O (racemic)
 |  | > 100 µM | > 100 µM | 13 µM | 4.91 | N[C@@H](C[C@@H]1CC(CCC(=O)O)=NO1)C(=O)O (racemic)
 |  | > 100 µM | > 100 µM | > 100 µM |  | N[C@@H](C[C@H]1CC(CCC(=O)O)=NO1)C(=O)O (racemic)
 |  | > 100 µM | > 100 µM | 22 µM |  | N[C@@H](C[C@@H]1CC(c2cccc(C(=O)O)c2)=NO1)C(=O)O (racemic)
 |  | > 100 µM | > 100 µM | 68 µM |  | N[C@@H](C[C@H]1CC(/C=C/C(=O)O)=NO1)C(=O)O (racemic)
